The results in this text go back to patent US9908831B2, “Resist composition, method for forming resist pattern, polyphenolic compound for use in the composition, and alcoholic compound that can be derived therefrom” (Mitsubishi Gas Chemical Company, Inc., priority 2011, dated 2018).

The structures appear in SMILES notation.

What all share (type): physicochemical
A short description of data set [1]: Thermal decomposition temperature by DSC. To be noted: 10° C./min to 500° C., nitrogen gas stream. As to the method: (3) Thermal Decomposition Temperature
The apparatus EXSTAR6000DSC (trade name) manufactured by SII NanoTechnology Inc. was used. About 5 mg of each sample was placed in a non-sealed container made of aluminum, and the temperature was raised to 500° C. at the rate of temperature rise of 10° C./min in a nitrogen gas stream (30 mL/min). The temperature corresponding to a descending peak appeared in the baseline was defined as the thermal decomposition temperature.
Background: DSC measures the heat that a sample takes up or gives off during a temperature scan.

Data set [2] in a line: Glass transition temperature by DSC. The note with it: 10° C./min to 300° C., second heating after quench, nitrogen gas stream. As to the method: (4) Glass Transition Temperature
The apparatus EXSTAR6000DSC (trade name) manufactured by SII NanoTechnology Inc. was used. About 5 mg of each sample was placed in a non-sealed container made of aluminum, and the temperature was raised to 300° C. at the rate of temperature rise of 10° C./min in a nitrogen gas stream (30 mL/min). After the non-sealed container made of aluminum was quenched, again the temperature was raised to 300° C. at the rate of temperature rise of 10° C./min in a nitrogen gas stream (30 mL/min), thereby performing DSC measurement. The temperature corresponding to the middle point (where the specific heat was changed into the half) of a region in which a discontinuous portion appeared in the baseline was defined as the glass transition point.

Data set [3] can be described thus: Solubility test of compound in safe solvent. The note with it: 23° C., visual. As to the method: (2) Solubility Test of Compound in Safe Solvent
The solubility of the compound in PGME and PGMEA was evaluated according to the following standard using the dissolution amount in each solvent. For the measurement of the dissolution amount, the compound was precisely weighed in a test tube at 23° C.; and the target solvent was added to the compound so that a predetermined concentration of the liquid to be obtained was set; a ultrasonic wave was applied to the liquid in an ultrasonic washing machine for 30 minutes; and the state of the resulting liquid was visually evaluated.
A: 5.0% by weight≦dissolution amount
B: 3.0% by weight≦dissolution amount<5.0% by weight
C: dissolution amount<3.0% by weight

Data set [4] in a line: Solubility of compound in methyl ethyl ketone (MEK). The note with it: dissolution amount in MEK at 23° C., visual. The procedure: (1) Solubility of Compound in Methyl Ethyl Ketone (MEK)
The solubility of the compound in MEK was evaluated according to the following standard using the dissolution amount in MEK at 23° C. For the measurement of the dissolution amount, the compound was precisely weighed in a test tube at 23° C.; and the target solvent was added to the compound so that a predetermined concentration of the liquid to be obtained was set; a ultrasonic wave was applied to the liquid in an ultrasonic washing machine for 30 minutes; and the state of the resulting liquid was visually evaluated.
Evaluation A: 50% by weight or more
Evaluation B: 10% by weigh or more and less than 50% by weight
Evaluation C: less than 10% by weight

`Oc1cccc2c3c(ccc12)C(c1ccc(-c2ccccc2)cc1)c1ccc2c(O)cccc2c1O3` [XBisN-3] yielded a thermal decomposition temperature in data set [1] of 410 °C. This compound gave a glass transition point in data set [2] of 152 °C. In data set [3], the “Solubility test of compound in safe solvent PGME” value is “A (A: 5.0% by weight≦dissolution amount)” and the “Solubility test of compound in safe solvent PGMEA” value is given as “A (A: 5.0% by weight≦dissolution amount)”. Besides, the “solubility in MEK” value in data set [4] was “B (Evaluation B: 10% by weigh or more and less than 50% by weight)”.

Regarding `Oc1ccc2c3c(ccc2c1)Oc1ccc2cc(O)ccc2c1C31CCCCC1` [XBisN-10], the thermal decomposition temperature in data set [1] was 400 °C. In addition, in data set [2], the glass transition point stood at 140 °C. For the same compound, in data set [3], the “Solubility test of compound in safe solvent PGME” value was “A (A: 5.0% by weight≦dissolution amount)” and the “Solubility test of compound in safe solvent PGMEA” value is listed as “A (A: 5.0% by weight≦dissolution amount)”. In data set [4], the “solubility in MEK” value was “B (Evaluation B: 10% by weigh or more and less than 50% by weight)”.

As to `Oc1ccc2c(C3(c4c(O)ccc5cc(O)ccc45)c4ccccc4-c4ccccc43)c(O)ccc2c1` [BisN-11], the thermal decomposition temperature in data set [1] is 250 °C. In data set [2], this compound came in with a glass transition point of 135 °C. Moreover, in data set [3], the “Solubility test of compound in safe solvent PGME” value is given as “A (A: 5.0% by weight≦dissolution amount)” and the “Solubility test of compound in safe solvent PGMEA” value was “A (A: 5.0% by weight≦dissolution amount)”. In data set [4], the “solubility in MEK” value was “B (Evaluation B: 10% by weigh or more and less than 50% by weight)”.

In turn, `Oc1cccc2c3c(ccc12)Oc1ccc2c(O)cccc2c1C3c1ccc(-c2ccccc2)cc1` [XBisN-4] registered a thermal decomposition temperature in data set [1] of 410 °C. In addition, in data set [2], the glass transition point was 152 °C. In addition, in data set [3], the “Solubility test of compound in safe solvent PGME” value is “A (A: 5.0% by weight≦dissolution amount)” and the “Solubility test of compound in safe solvent PGMEA” value is listed as “A (A: 5.0% by weight≦dissolution amount)”. Besides, in data set [4], the “solubility in MEK” value was “B (Evaluation B: 10% by weigh or more and less than 50% by weight)”.

Take `Cc1cc(C(c2ccc3ccc(C(c4cc(C)c(O)c(C)c4C)c4cc(C)c(O)c(C)c4C)cc3c2)c2cc(C)c(O)c(C)c2C)c(C)c(C)c1O` [TetP-1, reference compound]: in data set [3], the “Solubility test of compound in safe solvent PGME” value is on record as “A (A: 5.0% by weight≦dissolution amount)” and the “Solubility test of compound in safe solvent PGMEA” value was “A (A: 5.0% by weight≦dissolution amount)”.

In data set [1], `Oc1cc2ccccc2c2c1Oc1c(O)cc3ccccc3c1C2c1ccc(-c2ccccc2)cc1` [XBisN-6] displayed a thermal decomposition temperature of 410 °C. The same compound yielded a glass transition point in data set [2] of 152 °C. Also, in data set [3], the “Solubility test of compound in safe solvent PGME” value is listed as “A (A: 5.0% by weight≦dissolution amount)” and the “Solubility test of compound in safe solvent PGMEA” value was “A (A: 5.0% by weight≦dissolution amount)”. In addition, in data set [4], the “solubility in MEK” value was “B (Evaluation B: 10% by weigh or more and less than 50% by weight)”.

Take `Oc1ccc2c3c(ccc2c1)Oc1ccc2cc(O)ccc2c1C3c1ccc(-c2ccc(C3c4c(ccc5cc(O)ccc45)Oc4ccc5cc(O)ccc5c43)cc2)cc1` [XBisN-13]: the thermal decomposition temperature in data set [1] turned out to be 410 °C. Besides, the glass transition point in data set [2] is 152 °C. In addition, in data set [3], the “Solubility test of compound in safe solvent PGME” value is on record as “A (A: 5.0% by weight≦dissolution amount)” and the “Solubility test of compound in safe solvent PGMEA” value is recorded as “A (A: 5.0% by weight≦dissolution amount)”. Also, in data set [4], the “solubility in MEK” value was “B (Evaluation B: 10% by weigh or more and less than 50% by weight)”.

On to `Oc1ccc2c3c(ccc2c1)Oc1ccc2cc(O)ccc2c1C3c1cc2ccccc2c2ccccc12` [XBisN-8], for which, in data set [1], the thermal decomposition temperature is 415 °C. This compound displayed a glass transition point in data set [2] of 155 °C. In addition, in data set [3], the “Solubility test of compound in safe solvent PGME” value was “A (A: 5.0% by weight≦dissolution amount)” and the “Solubility test of compound in safe solvent PGMEA” value is listed as “A (A: 5.0% by weight≦dissolution amount)”. Moreover, in data set [4], the “solubility in MEK” value was “B (Evaluation B: 10% by weigh or more and less than 50% by weight)”.

Compound `Oc1ccc2c(C(c3ccc(-c4ccc(C(c5c(O)ccc6cc(O)ccc56)c5c(O)ccc6cc(O)ccc56)cc4)cc3)c3c(O)ccc4cc(O)ccc34)c(O)ccc2c1` [BisN-13] yielded a thermal decomposition temperature in data set [1] of 245 °C. In addition, the glass transition point in data set [2] is 130 °C. In addition, in data set [3], the “Solubility test of compound in safe solvent PGME” value was “A (A: 5.0% by weight≦dissolution amount)” and the “Solubility test of compound in safe solvent PGMEA” value was “A (A: 5.0% by weight≦dissolution amount)”. For the same compound, the “solubility in MEK” value in data set [4] was “B (Evaluation B: 10% by weigh or more and less than 50% by weight)”.

Turning to `Oc1ccc2c(C(c3c(O)ccc4cc(O)ccc34)c3ccc4ccc5cccc6ccc3c4c56)c(O)ccc2c1` [BisN-9], the thermal decomposition temperature in data set [1] came out at 260 °C. Further, in data set [2], the glass transition point was 140 °C. In addition, in data set [3], the “Solubility test of compound in safe solvent PGME” value is “A (A: 5.0% by weight≦dissolution amount)” and the “Solubility test of compound in safe solvent PGMEA” value is reported as “A (A: 5.0% by weight≦dissolution amount)”. In data set [4], the “solubility in MEK” value was “B (Evaluation B: 10% by weigh or more and less than 50% by weight)”.

With `Oc1cc2ccccc2c(C(c2ccc(-c3ccccc3)cc2)c2c(O)c(O)cc3ccccc23)c1O` [BisN-6], the thermal decomposition temperature in data set [1] was determined as 250 °C. In data set [2], the glass transition point came out at 130 °C. Also, in data set [3], the “Solubility test of compound in safe solvent PGME” value is “A (A: 5.0% by weight≦dissolution amount)” and the “Solubility test of compound in safe solvent PGMEA” value is on record as “A (A: 5.0% by weight≦dissolution amount)”. Besides, the “solubility in MEK” value in data set [4] was “B (Evaluation B: 10% by weigh or more and less than 50% by weight)”.

On to `Oc1ccc2c3c(ccc2c1)Oc1ccc2cc(O)ccc2c1C3c1cc(C2c3c(ccc4cc(O)ccc34)Oc3ccc4cc(O)ccc4c32)cc(C2c3c(ccc4cc(O)ccc34)Oc3ccc4cc(O)ccc4c32)c1` [XBisN-14], for which the thermal decomposition temperature in data set [1] was 410 °C. The glass transition point in data set [2] was found to be 152 °C. Also, in data set [3], the “Solubility test of compound in safe solvent PGME” value is given as “A (A: 5.0% by weight≦dissolution amount)” and the “Solubility test of compound in safe solvent PGMEA” value was “A (A: 5.0% by weight≦dissolution amount)”. For the same compound, in data set [4], the “solubility in MEK” value was “B (Evaluation B: 10% by weigh or more and less than 50% by weight)”.

Regarding `Oc1ccc2c3c(ccc2c1)Oc1ccc2cc(O)ccc2c1C3c1ccc(-c2ccccc2)cc1` [XBisN-1], the thermal decomposition temperature in data set [1] was found to be 410 °C. This compound also returned a glass transition point in data set [2] of 152 °C. For the same compound, in data set [3], the “Solubility test of compound in safe solvent PGME” value is recorded as “A (A: 5.0% by weight≦dissolution amount)” and the “Solubility test of compound in safe solvent PGMEA” value is “A (A: 5.0% by weight≦dissolution amount)”. The “solubility in MEK” value in data set [4] is recorded as “A (Evaluation A: 50% by weight or more)”.

In turn, `Oc1ccc2c(C(c3cccc4ccccc34)c3c(O)ccc4cc(O)ccc34)c(O)ccc2c1` [BisN-7] showed a thermal decomposition temperature in data set [1] of 255 °C. The glass transition point in data set [2] turned out to be 135 °C. In data set [3], the “Solubility test of compound in safe solvent PGME” value is on record as “A (A: 5.0% by weight≦dissolution amount)” and the “Solubility test of compound in safe solvent PGMEA” value was “A (A: 5.0% by weight≦dissolution amount)”. In addition, the “solubility in MEK” value in data set [4] is “B (Evaluation B: 10% by weigh or more and less than 50% by weight)”.

As to `Oc1ccc2c3c(ccc2c1)Oc1ccc2cc(O)ccc2c1C3c1ccc(C2c3c(ccc4cc(O)ccc34)Oc3ccc4cc(O)ccc4c32)cc1` [XBisN-12], in data set [1], the thermal decomposition temperature amounted to 410 °C. In data set [2], this compound displayed a glass transition point of 152 °C. Also, in data set [3], the “Solubility test of compound in safe solvent PGME” value is on record as “A (A: 5.0% by weight≦dissolution amount)” and the “Solubility test of compound in safe solvent PGMEA” value is “A (A: 5.0% by weight≦dissolution amount)”. The “solubility in MEK” value in data set [4] is “B (Evaluation B: 10% by weigh or more and less than 50% by weight)”.

Consider `OCCOc1ccc2c3c(ccc2c1)Oc1ccc2cc(OCCO)ccc2c1C3c1ccc(-c2ccccc2)cc1` [Example 29], for which the thermal decomposition temperature in data set [1] amounted to 375 °C. In data set [2], this compound gave a glass transition point of 132 °C.

As to `Oc1cc(O)c2cc1C(c1ccc(C3CCCCC3)cc1)c1cc(c(O)cc1O)C(c1ccc(C3CCCCC3)cc1)c1cc(c(O)cc1O)C(c1ccc(C3CCCCC3)cc1)c1cc(c(O)cc1O)C2c1ccc(C2CCCCC2)cc1` (stereo not shown) [CR-1, reference compound], in data set [3], the “Solubility test of compound in safe solvent PGME” value is given as “B (B: 3.0% by weight≦dissolution amount<5.0% by weight)” and the “Solubility test of compound in safe solvent PGMEA” value is “C (C: dissolution amount<3.0% by weight)”.
